Measured values taken from patent publication US20220213524A1, “KINASE SCREENING ASSAYS” (University of Newcastle upon Tyne, priority 2019, published 2022).

What was measured:
Type in all cases: cell-based
INCENP TSSph = test: Immunofluorescence microscopy and high content imaging of INCENP TSSph after acute kinase inhibition in nocodazole-arrested mitotic cells; conditions: over 9 minutes; nocodazole-arrested mitotic HeLa cells, MG132 included
Source text: (§1) To confirm that Cyclin B1-Cdk1 was a bona fide kinase for INCENP S446, the inventors first conducted in vitro kinase assays. Indeed, Cyclin B1-Cdk1 efficiently phosphorylated S446 on a recombinant INCENP fragment containing residues 369-583, but not the TSS motif (S893/S894) in recombinant INCENP residues 825-918. In contrast, Aurora B was able to phosphorylate its known target, the TSS motif of INCENP, but not S446 (FIG. 4B). Furthermore, INCENP immunoprecipitated from nocodazole-arrested mitotic cells was recognized by the INCENP S446ph antibody, and this phosphorylation was sensitive to the Cdk inhibitor Roscovitine (FIG. 14). However, determining the direct substrates of Cyclin B1-Cdk1 in cells is complicated because inhibition of Cdk1 prevents mitotic entry and/or forces mitotic exit, leading to indirect effects on multiple kinase substrates. […] Aurora B relocates to the spindle midzone at the end of mitosis so, as an additional way to focus on cells still in mitosis, the inventors analyzed only cells in which Aurora B remained on chromosomes. […] Also consistent with Cyclin B1-Cdk1 being the kinase responsible, INCENP S446ph was detected on chromosomes in mitotic cells from early mitosis until metaphase when Cyclin B1-Cdk is active, but was lost at anaphase when Cyclin B is degraded (FIG. 4D). […]

INCENP S446ph [1] = test: Immunofluorescence microscopy and high content imaging of INCENP S446ph after acute kinase inhibition in nocodazole-arrested mitotic cells; conditions: nocodazole-arrested mitotic HeLa cells, MG132 included
Source text: as §1

INCENP S446ph [2] = test: INCENP immunoprecipitation from nocodazole-arrested mitotic HeLa 1C8 cells and immunoblotting with INCENP S446ph antibody; conditions: 100 μM, 2 h, with 20 μM MG132; nocodazole-arrested mitotic HeLa 1C8 cells; immunoblot
Procedure: HeLa 1C8 cells (Dai et al., 2005) were treated with 0.5 μg/ml nocodazole for 8 h. After collecting mitotic cells by “shake off” and replating, either 100 μM Roscovitine or DMSO (vehicle control) was added together with 20 μM MG132 in the continued presence of nocodazole. After 2 h, cell lysates were prepared in 50 mM Tris, 0.3 M NaCl, 0.5% Triton X-100, 10 mM MgCl2, 5 mM EDTA, 1 mM dithiothreitol, 1 mM PMSF, 0.1 μM okadaic acid, 10 mM NaF, 20 mM β-glycerophosphate, 0.25 U/μl benzonase nuclease, cOmplete™ Mini EDTA-free Protease Inhibitor and subjected to immunoprecipitation with rabbit anti-INCENP and Dynabeads Protein G (ThermoFisher). After washing, bound proteins were eluted by boiling in SDS-PAGE sample buffer.
SDS-PAGE was carried out using the NuPAGE Bis-Tris system (ThermoFisher). Proteins were transferred onto PVDF membranes using standard techniques. Membranes were blocked with 2.5% milk in PBS, 0.1% Tween20 for 1 h, then with primary antibodies in 2.5% milk, PBS, 0.1% Tween20 overnight at 4° C. After washing 3 times with PBS, 0.1% Tween20, they were incubated for 1 h with secondary antibodies in 2.5% milk, PBS, 0.1% Tween20, washed three times with PBS, 0.1% Tween20 and once with PBS, before development using ECL substrate (Pierce) and exposure to X-ray film. Stripping of immunoblots was carried out with Restore Western Blot Stripping Buffer (ThermoFisher).

Compound	effect on INCENP TSSph (Aurora B phosphorylation site) (INCENP TSSph)	reduction in intensity of INCENP S446ph (INCENP S446ph [1]; over 9 minutes, only cells with Aurora B on chromosomes)	sensitivity of INCENP S446 phosphorylation to inhibitor (INCENP S446ph [2])	effect on INCENP S446ph (INCENP S446ph [1]; over the same time period (9 minutes))
O=C1NC(=NCc2cccs2)S/C1=C\c1ccc2ncccc2c1 [RO-3306]	unaffected	50%	–	–
CC[C@H](CO)Nc1nc(NCc2ccccc2)c2ncn(C(C)C)c2n1 [Roscovitine]	–	–	sensitive	–
COc1cc2c(Nc3ccc(NC(=O)c4ccccc4)cc3)ncnc2cc1OCCCN1CCOCC1 [ZM447439]	rapid decline	–	–	did not influence
